In ChEMBL document CHEMBL4673207, “Recent advances in the discovery of potent and selective HDAC6 inhibitors” (Eur J Med Chem, 2018):

How the values were obtained:
HEK293T = assay: Selectivity ratio of IC50 for Flag-tagged HDAC1 (unknown origin) expressed in 293T cells to IC50 for Flag-tagged HDAC6 (unknown origin) expressed in 293T cells; format: cell-based; details: Homo sapiens
[1] = target: T1, Protein deacetylase HDAC6 (Homo sapiens, UniProt Q9UBN7); assay: Inhibition of Flag-tagged HDAC6 (unknown origin) expressed in 293T cells using ZMAL as substrate incubated for 180 mins by fluorescence method; design: species or system HEK293T
T1 sequence (Q9UBN7 whole entry): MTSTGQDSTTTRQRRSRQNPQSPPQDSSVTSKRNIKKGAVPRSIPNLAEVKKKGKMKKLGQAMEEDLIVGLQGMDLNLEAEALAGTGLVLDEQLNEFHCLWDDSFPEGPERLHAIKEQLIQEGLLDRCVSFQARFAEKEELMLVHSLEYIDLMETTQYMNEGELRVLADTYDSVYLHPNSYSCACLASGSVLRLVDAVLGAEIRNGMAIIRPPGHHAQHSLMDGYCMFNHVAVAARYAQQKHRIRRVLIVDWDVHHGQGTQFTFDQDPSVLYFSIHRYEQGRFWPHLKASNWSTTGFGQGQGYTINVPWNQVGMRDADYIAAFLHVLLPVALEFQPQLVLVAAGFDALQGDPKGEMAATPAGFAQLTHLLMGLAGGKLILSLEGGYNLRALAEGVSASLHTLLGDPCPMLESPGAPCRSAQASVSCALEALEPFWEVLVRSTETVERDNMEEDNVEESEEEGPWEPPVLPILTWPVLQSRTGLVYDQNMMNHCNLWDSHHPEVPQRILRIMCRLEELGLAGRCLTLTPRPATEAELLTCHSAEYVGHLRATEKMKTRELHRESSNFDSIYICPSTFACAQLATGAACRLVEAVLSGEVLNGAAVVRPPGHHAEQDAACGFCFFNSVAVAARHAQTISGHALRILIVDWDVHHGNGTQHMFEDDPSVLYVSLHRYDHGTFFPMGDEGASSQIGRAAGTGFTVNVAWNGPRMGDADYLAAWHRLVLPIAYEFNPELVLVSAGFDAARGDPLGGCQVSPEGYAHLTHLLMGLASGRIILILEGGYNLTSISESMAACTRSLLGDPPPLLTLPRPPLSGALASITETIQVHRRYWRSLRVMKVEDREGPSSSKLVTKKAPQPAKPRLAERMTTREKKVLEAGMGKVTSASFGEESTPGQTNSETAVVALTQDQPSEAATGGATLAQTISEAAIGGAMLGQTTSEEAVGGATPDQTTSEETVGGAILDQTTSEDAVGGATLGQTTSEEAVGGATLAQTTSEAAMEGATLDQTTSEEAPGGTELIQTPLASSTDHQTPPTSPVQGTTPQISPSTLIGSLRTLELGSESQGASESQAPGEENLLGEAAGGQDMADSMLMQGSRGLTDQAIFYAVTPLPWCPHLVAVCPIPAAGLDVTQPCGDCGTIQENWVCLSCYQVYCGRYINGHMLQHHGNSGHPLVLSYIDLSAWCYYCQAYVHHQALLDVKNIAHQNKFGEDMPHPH

PC-3 = assay: Antiproliferative activity against human PC3 cells incubated for 72 hrs by MTT assay; format: functional, cell-based; details: PC-3, 72 h
Histone deacetylase 2 [2] = target: T2, Histone deacetylase 2 (Homo sapiens, UniProt Q92769); assay: Inhibition of human HDAC2 using p53 fluorogenic peptide (379 to 382 residues) RHKKAc as substrate by fluorescence-based assay
T2 sequence (Q92769 whole entry, the tested form may be a part): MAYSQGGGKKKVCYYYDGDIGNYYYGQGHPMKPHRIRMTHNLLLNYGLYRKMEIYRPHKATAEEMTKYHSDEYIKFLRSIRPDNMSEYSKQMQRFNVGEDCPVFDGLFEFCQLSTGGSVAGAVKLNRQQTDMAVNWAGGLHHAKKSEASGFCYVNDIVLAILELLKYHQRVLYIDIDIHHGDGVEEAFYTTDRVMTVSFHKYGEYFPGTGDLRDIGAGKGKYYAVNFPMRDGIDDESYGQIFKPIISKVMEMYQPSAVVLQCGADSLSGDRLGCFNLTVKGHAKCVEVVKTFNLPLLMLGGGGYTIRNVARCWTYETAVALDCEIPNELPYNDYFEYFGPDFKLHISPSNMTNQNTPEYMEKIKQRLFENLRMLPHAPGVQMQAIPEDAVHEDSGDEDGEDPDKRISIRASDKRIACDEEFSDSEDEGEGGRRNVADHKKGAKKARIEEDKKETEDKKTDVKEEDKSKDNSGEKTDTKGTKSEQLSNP

[3] = target: T1, Protein deacetylase HDAC6; assay: Inhibition of human HDAC6 using p53 fluorogenic peptide (379 to 382 residues) RHKKAc as substrate by fluorescence-based assay
Histone deacetylase 1 [4] = target: T3, Histone deacetylase 1 (Homo sapiens, UniProt Q13547); assay: Inhibition of human HDAC1 using p53 fluorogenic peptide (379 to 382 residues) RHKKAc as substrate by fluorescence-based assay
T3 sequence (Q13547 whole entry, the tested form may be a part): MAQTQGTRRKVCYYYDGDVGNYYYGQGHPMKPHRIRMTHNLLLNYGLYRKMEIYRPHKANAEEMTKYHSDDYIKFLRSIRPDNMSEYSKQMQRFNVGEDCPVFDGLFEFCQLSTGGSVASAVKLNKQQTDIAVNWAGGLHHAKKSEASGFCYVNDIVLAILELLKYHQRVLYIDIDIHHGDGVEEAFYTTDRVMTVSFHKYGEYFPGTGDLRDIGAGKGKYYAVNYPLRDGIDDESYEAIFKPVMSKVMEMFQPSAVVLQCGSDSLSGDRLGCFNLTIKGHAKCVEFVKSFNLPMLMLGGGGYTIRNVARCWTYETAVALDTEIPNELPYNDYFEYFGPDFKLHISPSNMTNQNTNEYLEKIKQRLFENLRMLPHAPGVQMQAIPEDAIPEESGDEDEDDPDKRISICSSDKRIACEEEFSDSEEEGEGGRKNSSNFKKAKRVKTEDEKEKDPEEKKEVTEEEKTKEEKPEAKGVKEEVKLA

HCT-116 [5] = assay: Antiproliferative activity against human HCT116 cells incubated for 72 hrs by MTT assay; format: functional, cell-based; details: HCT-116, 72 h
KMS-11 = assay: Antiproliferative activity against human KMS-11 cells incubated for 72 hrs by sulphorhodamine B assay; format: functional
[6] = target: T1, Protein deacetylase HDAC6; assay: Inhibition of HDAC6 (unknown origin) using (AMC)-labelled p53 peptide( 379 to 382 residues) RHKKAc as substrate
SH-SY5Y = assay: Antiproliferative activity against human SH-SY5Y cells incubated for 72 hrs by sulphorhodamine B assay; format: functional, cell-based
Histone deacetylase 1 [7] = target: T3, Histone deacetylase 1; assay: Inhibition of HDAC1 (unknown origin) using (AMC)-labelled p53 peptide( 379 to 382 residues) RHKKAc as substrate
HCT-116 [8] = assay: Antitumor activity against human HCT116 cells xenografted in BALB/c athymic nude mouse assessed as tumor growth inhibition at 20 mg/kg administered twice daily for 14 days and measuring daily during compound dosing relative to control; format: functional; details: HCT-116, 336 h, time 14 day, read-out: TGI
Histone deacetylase 4 [9] = target: T4, Histone deacetylase 4 (Homo sapiens, UniProt P56524); assay: Inhibition of human HDAC4 expressed in sf9 cells using Fluor deLys substrate by fluorescence method
T4 sequence (P56524 whole entry): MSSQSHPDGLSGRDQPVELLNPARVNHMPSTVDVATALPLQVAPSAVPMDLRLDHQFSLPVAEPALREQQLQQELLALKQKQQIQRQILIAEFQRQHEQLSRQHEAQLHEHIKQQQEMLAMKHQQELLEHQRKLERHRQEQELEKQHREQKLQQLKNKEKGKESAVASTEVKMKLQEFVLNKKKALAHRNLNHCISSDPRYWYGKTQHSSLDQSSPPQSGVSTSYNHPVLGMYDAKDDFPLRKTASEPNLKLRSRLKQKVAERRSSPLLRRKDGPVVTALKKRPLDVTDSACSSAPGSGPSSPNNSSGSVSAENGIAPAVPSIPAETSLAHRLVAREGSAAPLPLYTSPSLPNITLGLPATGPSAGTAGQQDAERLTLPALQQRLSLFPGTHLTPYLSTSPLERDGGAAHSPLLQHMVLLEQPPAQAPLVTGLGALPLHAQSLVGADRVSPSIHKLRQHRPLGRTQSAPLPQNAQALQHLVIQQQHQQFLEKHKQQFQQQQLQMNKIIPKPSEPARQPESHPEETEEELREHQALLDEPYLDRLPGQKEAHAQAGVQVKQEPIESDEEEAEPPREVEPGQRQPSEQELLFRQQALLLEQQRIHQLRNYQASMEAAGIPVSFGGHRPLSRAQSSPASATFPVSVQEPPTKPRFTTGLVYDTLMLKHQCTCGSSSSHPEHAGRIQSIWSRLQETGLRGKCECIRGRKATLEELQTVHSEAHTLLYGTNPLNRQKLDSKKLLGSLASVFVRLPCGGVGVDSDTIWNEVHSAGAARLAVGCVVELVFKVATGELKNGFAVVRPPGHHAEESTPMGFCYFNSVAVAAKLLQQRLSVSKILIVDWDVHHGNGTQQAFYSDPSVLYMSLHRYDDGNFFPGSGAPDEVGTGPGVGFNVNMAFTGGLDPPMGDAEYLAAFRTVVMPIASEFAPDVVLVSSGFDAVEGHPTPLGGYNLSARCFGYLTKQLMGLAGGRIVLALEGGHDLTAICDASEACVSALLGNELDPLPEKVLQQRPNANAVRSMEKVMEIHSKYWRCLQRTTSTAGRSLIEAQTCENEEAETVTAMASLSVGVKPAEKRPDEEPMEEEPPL

Histone deacetylase 5 [10] = target: T5, Histone deacetylase 5 (Homo sapiens, UniProt Q9UQL6); assay: Inhibition of human HDAC5 using Fluor deLys substrate by fluorescence method
T5 sequence (Q9UQL6 whole entry, the tested form may be a part): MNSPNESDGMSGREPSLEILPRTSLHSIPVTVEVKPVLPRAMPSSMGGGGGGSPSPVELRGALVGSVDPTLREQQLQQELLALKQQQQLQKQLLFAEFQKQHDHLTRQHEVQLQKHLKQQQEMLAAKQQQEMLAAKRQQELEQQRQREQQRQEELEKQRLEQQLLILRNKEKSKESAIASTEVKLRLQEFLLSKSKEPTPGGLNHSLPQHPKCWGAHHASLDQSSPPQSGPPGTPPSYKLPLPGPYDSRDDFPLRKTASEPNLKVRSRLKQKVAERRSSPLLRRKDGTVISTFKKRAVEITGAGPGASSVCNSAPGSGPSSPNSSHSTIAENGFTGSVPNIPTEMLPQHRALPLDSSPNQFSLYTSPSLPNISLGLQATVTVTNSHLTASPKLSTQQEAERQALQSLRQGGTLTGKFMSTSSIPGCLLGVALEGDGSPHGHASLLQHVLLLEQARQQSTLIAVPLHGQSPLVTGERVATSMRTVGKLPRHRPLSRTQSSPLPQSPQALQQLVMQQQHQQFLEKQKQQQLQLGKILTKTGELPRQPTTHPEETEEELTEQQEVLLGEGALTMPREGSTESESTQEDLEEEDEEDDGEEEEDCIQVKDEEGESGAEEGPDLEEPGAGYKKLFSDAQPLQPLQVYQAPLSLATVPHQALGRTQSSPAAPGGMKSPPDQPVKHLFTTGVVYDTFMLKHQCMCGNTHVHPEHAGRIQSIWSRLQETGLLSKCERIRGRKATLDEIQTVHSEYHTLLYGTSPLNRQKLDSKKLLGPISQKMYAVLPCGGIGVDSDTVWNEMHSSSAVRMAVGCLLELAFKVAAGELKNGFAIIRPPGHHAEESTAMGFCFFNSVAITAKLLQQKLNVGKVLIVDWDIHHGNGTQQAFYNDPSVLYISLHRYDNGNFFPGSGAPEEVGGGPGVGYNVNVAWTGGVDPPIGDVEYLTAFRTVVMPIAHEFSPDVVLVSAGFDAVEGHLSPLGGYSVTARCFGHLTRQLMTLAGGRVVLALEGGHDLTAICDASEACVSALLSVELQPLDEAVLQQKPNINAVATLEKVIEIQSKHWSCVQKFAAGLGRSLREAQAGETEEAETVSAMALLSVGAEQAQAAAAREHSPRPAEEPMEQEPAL

[11] = target: T6, Polyamine deacetylase HDAC10 (Homo sapiens, UniProt Q969S8); assay: Inhibition of N-terminal Flag tagged- human HDAC10 (2 to 631 amino acids) expressed in baculovirus infected Sf9 cells using Fluor deLys substrate by fluorescence method
T6 sequence (Q969S8 whole entry): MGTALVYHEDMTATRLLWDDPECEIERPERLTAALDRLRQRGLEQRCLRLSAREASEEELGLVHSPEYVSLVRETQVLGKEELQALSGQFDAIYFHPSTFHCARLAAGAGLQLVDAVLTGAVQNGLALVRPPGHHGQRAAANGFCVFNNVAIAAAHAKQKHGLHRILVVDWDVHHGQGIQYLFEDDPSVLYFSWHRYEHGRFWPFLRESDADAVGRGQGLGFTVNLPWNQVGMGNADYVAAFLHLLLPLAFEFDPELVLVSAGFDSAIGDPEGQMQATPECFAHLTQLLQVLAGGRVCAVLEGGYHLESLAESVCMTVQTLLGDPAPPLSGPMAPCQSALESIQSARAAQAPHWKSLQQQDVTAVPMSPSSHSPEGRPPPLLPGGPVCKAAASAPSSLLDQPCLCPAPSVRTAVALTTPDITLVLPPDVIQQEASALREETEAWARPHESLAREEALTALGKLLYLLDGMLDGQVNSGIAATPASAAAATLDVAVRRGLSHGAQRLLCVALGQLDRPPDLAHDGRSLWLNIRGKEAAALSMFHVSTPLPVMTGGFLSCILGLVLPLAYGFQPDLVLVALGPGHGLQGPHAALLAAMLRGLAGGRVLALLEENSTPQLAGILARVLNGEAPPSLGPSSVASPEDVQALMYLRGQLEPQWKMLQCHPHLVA

A2780 = assay: Antiproliferative activity against human A2780 cells by MTT assay; format: functional, cell-based
CAL-27 = assay: Antiproliferative activity against human Cal-27 cells by MTT assay; format: functional, cell-based
Histone deacetylase 8 = Histone deacetylase 8 (Homo sapiens, UniProt Q9BY41); assay: Inhibition of HDAC8 (unknown origin)
Chain of Histone deacetylase 8 (Q9BY41 whole entry): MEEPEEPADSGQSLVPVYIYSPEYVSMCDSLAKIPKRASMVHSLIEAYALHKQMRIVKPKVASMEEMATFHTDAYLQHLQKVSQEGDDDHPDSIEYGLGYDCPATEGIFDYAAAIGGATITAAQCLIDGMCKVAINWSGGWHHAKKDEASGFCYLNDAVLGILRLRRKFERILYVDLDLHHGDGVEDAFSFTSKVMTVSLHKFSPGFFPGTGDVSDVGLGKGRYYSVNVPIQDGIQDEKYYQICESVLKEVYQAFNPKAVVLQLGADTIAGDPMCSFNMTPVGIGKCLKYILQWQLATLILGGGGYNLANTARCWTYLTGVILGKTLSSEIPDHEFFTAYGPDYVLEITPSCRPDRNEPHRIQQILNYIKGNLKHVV

Histone deacetylase 5 [12] = target: T5, Histone deacetylase 5; assay: Inhibition of HDAC5 (unknown origin)
[13] = target: T6, Polyamine deacetylase HDAC10; assay: Inhibition of HDAC10 (unknown origin)
Histone deacetylase 2 [14] = target: T2, Histone deacetylase 2; assay: Inhibition of HDAC2 (unknown origin)
Histone deacetylase 4 [15] = target: T4, Histone deacetylase 4; assay: Inhibition of HDAC4 (unknown origin)
Histone deacetylase 3 = Histone deacetylase 3 (Homo sapiens, UniProt O15379); assay: Inhibition of HDAC3 (unknown origin)
Histone deacetylase 9 = Histone deacetylase 9 (Homo sapiens, UniProt Q9UKV0); assay: Inhibition of HDAC9 (unknown origin)
Chain of Histone deacetylase 9 (Q9UKV0 whole entry): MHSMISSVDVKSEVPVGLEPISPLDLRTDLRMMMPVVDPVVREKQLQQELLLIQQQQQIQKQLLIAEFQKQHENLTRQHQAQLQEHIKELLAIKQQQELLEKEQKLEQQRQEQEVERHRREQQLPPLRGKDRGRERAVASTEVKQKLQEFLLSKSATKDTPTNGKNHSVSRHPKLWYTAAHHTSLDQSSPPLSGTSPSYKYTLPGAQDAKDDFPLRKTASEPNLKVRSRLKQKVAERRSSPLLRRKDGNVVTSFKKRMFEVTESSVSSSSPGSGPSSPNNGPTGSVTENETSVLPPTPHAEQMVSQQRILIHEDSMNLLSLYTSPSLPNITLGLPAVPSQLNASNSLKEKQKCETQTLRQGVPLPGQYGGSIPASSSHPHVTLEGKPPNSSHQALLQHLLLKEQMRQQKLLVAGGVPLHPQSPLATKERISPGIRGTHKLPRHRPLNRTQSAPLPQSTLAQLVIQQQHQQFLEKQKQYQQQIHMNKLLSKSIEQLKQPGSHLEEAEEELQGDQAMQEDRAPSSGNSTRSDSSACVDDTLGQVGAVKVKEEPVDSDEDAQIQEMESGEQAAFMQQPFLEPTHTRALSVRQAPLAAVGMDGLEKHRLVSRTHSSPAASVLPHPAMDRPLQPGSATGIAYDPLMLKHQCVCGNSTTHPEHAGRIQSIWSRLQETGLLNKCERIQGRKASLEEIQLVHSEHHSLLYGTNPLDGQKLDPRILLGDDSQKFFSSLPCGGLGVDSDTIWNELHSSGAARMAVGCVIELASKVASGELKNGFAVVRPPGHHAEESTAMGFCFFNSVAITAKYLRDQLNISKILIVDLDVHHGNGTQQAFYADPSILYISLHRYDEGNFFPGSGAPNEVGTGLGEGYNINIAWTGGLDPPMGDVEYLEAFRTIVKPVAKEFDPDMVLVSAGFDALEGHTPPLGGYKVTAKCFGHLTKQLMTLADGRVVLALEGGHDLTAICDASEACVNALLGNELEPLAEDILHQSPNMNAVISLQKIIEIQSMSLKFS

Histone deacetylase 11 = Histone deacetylase 11 (Homo sapiens, UniProt Q96DB2); assay: Inhibition of HDAC11 (unknown origin)
Chain of Histone deacetylase 11 (Q96DB2 whole entry): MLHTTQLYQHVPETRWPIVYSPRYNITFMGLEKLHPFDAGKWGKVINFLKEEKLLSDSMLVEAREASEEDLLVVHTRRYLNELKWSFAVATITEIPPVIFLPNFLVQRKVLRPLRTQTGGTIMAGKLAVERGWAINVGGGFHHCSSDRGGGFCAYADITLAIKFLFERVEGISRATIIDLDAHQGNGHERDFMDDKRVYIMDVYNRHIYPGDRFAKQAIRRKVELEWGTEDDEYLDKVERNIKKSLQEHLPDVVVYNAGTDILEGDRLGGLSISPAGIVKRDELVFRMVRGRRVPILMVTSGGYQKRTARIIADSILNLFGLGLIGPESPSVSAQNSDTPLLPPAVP

[16] = target: T1, Protein deacetylase HDAC6; assay: Inhibition of HDAC6 (unknown origin)
Histone deacetylase 1 [17] = target: T3, Histone deacetylase 1; assay: Inhibition of HDAC1 (unknown origin)
Histone deacetylase 2 [18] = target: T2, Histone deacetylase 2; assay: Inhibition of human full-length recombinant HDAC2 using fluorogenic peptide ([…] residues) (RHKK(Ac)) as substrate by fluorescence method
Histone deacetylase = assay: Inhibition of HDAC in human HeLa cell extracts using Fluor de lys as substrate incubated for 30 mins by fluorimetric analysis
Histone deacetylase 1 [19] = target: T3, Histone deacetylase 1; assay: Inhibition of human full-length recombinant HDAC1 using p53 fluorogenic peptide ([…] residues) (RHKK(Ac)) as substrate by fluorescence method
[20] = target: T1, Protein deacetylase HDAC6; assay: Inhibition of human full-length recombinant HDAC6 using fluorogenic peptide […] (RHKK(Ac)) as substrate by fluorescence method

SMILES: COC(=O)[C@@H](Cc1ccccn1)NC(=O)CCCCCCC(=O)NO
- Ratio IC50 (HEK293T): 20
- IC50 [1]: 4.01 µM

SMILES: O=C(NO)c1ccc(Cn2c(=O)c(F)cn(C3CCCO3)c2=O)cc1 (stereo not drawn)
- IC50 (PC-3): 11.4 µM
- IC50 (Histone deacetylase 2 [2]): 5500 nM
- IC50 [3]: 12.4 nM
- IC50 (Histone deacetylase 1 [4]): 1710 nM
- IC50 (HCT-116 [5]): 8.08 µM

SMILES: CC(/C=C/C(=O)NO)=C\c1ccc(NS(=O)(=O)c2ccc(N(CCCl)CCCl)cc2)cc1
- GI50 (KMS-11): 480 nM
- IC50 [6]: 479 nM
- IC50 (SH-SY5Y): 280 nM
- IC50 (Histone deacetylase 1 [7]): 14 µM
- inhibition in vivo at 20 mg/kg (HCT-116 [8]): 78%

SMILES: CN(C)c1cccc2c(S(=O)(=O)NCCCCCC(=O)NO)cccc12
- IC50 (Histone deacetylase 4 [9]): 330 nM
- IC50 (Histone deacetylase 5 [10]): 400 nM
- IC50 [11]: 420 nM

SMILES: CN(C)c1ccc(C(=O)N(CC(=O)NC2CCCCC2)Cc2ccc(C(=O)NO)cc2)cc1
- IC50 (Histone deacetylase 2 [2]): 200 nM
- IC50 [3]: 1.59 nM
- IC50 (A2780): 340 nM
- IC50 (CAL-27): 2040 nM

SMILES: O=C(NO)c1ccc(CN2c3ccccc3S(=O)(=O)C[C@@H]3CCCC[C@@H]32)cc1
- IC50 (Histone deacetylase 8): 1100 nM
- IC50 (Histone deacetylase 5 [12]): > 8 µM
- IC50 [13]: > 8 µM
- IC50 (Histone deacetylase 2 [14]): > 8 µM
- IC50 (Histone deacetylase 4 [15]): > 8 µM
- IC50 (Histone deacetylase 3): > 8 µM
- IC50 (Histone deacetylase 9): > 8 µM
- IC50 (Histone deacetylase 11): 2400 nM
- IC50 [16]: 8 nM
- IC50 (Histone deacetylase 1 [17]): > 8 µM

SMILES: O=C(/C=C/c1cccn(CCCc2ccc3ccccc3c2)c1=O)NO
- IC50 (Histone deacetylase 2 [18]): 128 nM
- IC50 (Histone deacetylase): 0.07 µM
- IC50 (Histone deacetylase 1 [19]): 19.4 nM
- IC50 [20]: 2.46 nM
